Results: patent US9637472B2, “Substituted 6,5-fused bicyclic heteroaryl compounds” (Epizyme, Inc., priority 2011, dated 2017)

Molecular target: EZH2 (Homo sapiens (Human), UniProt Q15910)
Test: PRC2 enzyme assay on peptide substrates
Format: biochemical
Conditions: PRC2 enzyme assays on peptide substrates; 4 nM enzyme, 30 min preincubation at 25° C.; read-out: EZH2 IC50
From the text: General Materials. S-adenosylmethionine (SAM), S-adenosylhomocyteine (SAH), bicine, KCl, Tween20, dimethylsulfoxide (DMSO) and bovine skin gelatin (BSG) were purchased from Sigma-Aldrich at the highest level of purity possible. Dithiothreitol (DTT) was purchased from EMD. ^3H-SAM was purchased from American Radiolabeled Chemicals with a specific activity of 80 Ci/mmol. 384-well streptavidin Flashplates were purchased from PerkinElmer.
Substrates. […] The sequences are listed below.
Recombinant PRC2 Enzymes. Human PRC2 enzymes were purified as 4-component enzyme complexes co-expressed in Spodoptera frugiperda (sf9) cells using a baculovirus expression system. The subunits expressed were wild-type EZH2 (NM_004456) or EZH2 Y641F, N, H, S or C mutants generated from the wild-type EZH2 construct, EED (NM_003797), Suz12 (NM_015355) and RbAp48 (NM_005610). The EED subunit contained an N-terminal FLAG tag that was used to purify the entire 4-component complex from sf9 cell lysates.
General Procedure for PRC2 Enzyme Assays on Peptide Substrates. The assays were all performed in a buffer consisting of 20 mM bicine (pH=7.6), 0.5 mM DTT, 0.005% BSG and 0.002% Tween20, prepared on the day of use. […] DMSO (1 μL) was added to columns 11, 12, 23, 24, rows A-H for the maximum signal control, and SAH, a known product and inhibitor of PRC2 (1 μL) was added to columns 11, 12, 23, 24, rows I-P for the minimum signal control. A cocktail (40 μL) containing the wild-type PRC2 enzyme and H3K27me0 peptide or any of the Y641 mutant enzymes and H3K27me2 peptide was added by Multidrop Combi (Thermo). The compounds were allowed to incubate with PRC2 for 30 min at 25° C., then a cocktail (10 μL) containing a mixture of non-radioactive and ^3H-SAM was added to initiate the reaction (final volume=51 μL). […] The assays were stopped by the addition of non-radioactive SAM (10 μL) to a final concentration of 600 μM, which dilutes the ^3H-SAM to a level where its incorporation into the peptide substrate is no longer detectable. 50 μL of the reaction in the 384-well polypropylene plate was then transferred to a 384-well Flashplate and the biotinylated peptides were allowed to bind to the streptavidin surface for at least 1 h before being washed three times with 0.1% Tween20 in a Biotek ELx405 plate washer. The plates were then read in a PerkinElmer TopCount platereader to measure the quantity of ^3H-labeled peptide bound to the Flashplate surface, measured as disintegrations per minute (dpm) or alternatively, referred to as counts per minute (cpm).
Where dpm=disintegrations per minute, cmpd=signal in assay well, and min and max are the respective minimum and maximum signal controls.
Where top and bottom are the normally allowed to float, but may be fixed at 100 or 0 respectively in a 3-parameter fit. The Hill Coefficient normally allowed to float but may also be fixed at 1 in a 3-parameter fit. Y is the % inhibition and X is the compound concentration.

Chain of EZH2 (Q15910 other isoform, or with tags, fused parts or gaps): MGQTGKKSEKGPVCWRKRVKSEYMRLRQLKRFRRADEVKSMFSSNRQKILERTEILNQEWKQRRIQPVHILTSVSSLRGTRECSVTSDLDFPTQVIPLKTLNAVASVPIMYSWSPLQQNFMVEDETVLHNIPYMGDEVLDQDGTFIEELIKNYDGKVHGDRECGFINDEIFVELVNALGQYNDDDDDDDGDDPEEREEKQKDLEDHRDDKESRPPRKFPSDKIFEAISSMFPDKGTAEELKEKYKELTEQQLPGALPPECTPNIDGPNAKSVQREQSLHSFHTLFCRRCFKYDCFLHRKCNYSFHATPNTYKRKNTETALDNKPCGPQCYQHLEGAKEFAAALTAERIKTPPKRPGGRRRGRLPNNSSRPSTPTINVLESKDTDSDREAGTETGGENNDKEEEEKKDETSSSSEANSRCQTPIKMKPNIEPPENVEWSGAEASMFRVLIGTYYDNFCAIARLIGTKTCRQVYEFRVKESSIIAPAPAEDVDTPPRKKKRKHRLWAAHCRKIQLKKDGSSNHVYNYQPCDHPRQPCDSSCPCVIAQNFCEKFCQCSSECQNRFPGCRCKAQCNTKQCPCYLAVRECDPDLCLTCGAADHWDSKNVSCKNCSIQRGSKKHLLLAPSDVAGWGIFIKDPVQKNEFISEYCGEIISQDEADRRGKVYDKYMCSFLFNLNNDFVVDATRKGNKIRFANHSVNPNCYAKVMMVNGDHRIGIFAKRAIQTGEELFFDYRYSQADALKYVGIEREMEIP
Chain of EZH2 (O75530 whole entry partner): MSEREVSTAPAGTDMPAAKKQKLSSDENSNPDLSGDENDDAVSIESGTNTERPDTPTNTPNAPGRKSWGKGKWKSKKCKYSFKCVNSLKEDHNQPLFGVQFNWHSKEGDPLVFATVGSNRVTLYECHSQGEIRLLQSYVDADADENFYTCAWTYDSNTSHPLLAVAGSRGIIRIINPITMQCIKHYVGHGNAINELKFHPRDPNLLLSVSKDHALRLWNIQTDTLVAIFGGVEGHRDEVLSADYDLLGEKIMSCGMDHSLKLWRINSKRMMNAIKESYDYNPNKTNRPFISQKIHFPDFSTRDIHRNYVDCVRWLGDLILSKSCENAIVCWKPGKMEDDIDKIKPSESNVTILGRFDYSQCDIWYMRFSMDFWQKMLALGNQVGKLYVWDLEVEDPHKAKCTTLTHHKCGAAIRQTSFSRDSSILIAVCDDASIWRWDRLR
Chain of EZH2 (Q15022 whole entry partner): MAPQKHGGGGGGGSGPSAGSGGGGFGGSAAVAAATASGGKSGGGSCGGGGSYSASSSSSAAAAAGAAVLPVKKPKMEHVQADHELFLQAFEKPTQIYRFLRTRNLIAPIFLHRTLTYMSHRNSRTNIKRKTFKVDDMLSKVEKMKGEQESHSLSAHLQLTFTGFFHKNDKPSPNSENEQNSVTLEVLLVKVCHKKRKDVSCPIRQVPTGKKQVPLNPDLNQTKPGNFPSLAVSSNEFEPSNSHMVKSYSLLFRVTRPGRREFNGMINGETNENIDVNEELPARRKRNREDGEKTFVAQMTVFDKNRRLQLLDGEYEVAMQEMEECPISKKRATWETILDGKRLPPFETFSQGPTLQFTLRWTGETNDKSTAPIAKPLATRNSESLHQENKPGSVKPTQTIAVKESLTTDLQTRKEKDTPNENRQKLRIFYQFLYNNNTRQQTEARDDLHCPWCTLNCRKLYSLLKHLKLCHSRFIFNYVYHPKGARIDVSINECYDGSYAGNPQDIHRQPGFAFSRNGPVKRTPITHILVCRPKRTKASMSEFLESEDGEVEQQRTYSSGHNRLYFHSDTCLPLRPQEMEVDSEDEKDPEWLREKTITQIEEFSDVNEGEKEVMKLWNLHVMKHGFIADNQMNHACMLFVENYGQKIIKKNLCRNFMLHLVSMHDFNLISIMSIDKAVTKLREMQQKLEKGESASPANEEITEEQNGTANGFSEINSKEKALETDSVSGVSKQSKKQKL
Chain of EZH2 (Q09028 whole entry partner): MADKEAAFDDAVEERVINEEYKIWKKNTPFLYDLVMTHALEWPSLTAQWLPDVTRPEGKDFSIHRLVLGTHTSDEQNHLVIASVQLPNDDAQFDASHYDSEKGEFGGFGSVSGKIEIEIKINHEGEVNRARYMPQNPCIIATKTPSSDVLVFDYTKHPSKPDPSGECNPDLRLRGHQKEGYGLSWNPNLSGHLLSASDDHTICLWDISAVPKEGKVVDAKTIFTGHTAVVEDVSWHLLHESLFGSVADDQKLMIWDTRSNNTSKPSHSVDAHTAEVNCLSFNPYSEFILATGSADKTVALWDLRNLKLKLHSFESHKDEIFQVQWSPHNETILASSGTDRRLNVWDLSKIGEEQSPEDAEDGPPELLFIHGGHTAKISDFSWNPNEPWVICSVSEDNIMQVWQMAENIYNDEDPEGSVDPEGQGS

Row | Compound | IC50 [nM]
1 | 1-cyclopentyl-N-((4,6-dimethyl-2-oxo-1,2-dihydropyridin-3-yl)methyl)-6-(2-ethoxy-4-((4-ethylpiperazin-1-yl)sulfonyl)phenyl)-1H-indazole-4-carboxamide [Compound C-14] | < 300
2 | Cc1cc(C)c(CNC(=O)c2cc(C3=CCN(C(=O)C4CN(C)C4)CC3)cc3c2cnn3C2CCCC2)c(=O)[nH]1 [Compound D-50] | < 300
3 | Cc1cc(C)c(CNC(=O)c2cc(-c3cccc(C[N+](C)(C)CCO)c3)cc3c2cnn3C2CCCC2)c(=O)[nH]1 [Compound C-19] | < 300
4 | Cc1cc(C)n(C)c(=O)c1CNC(=O)c1cc(-c2cccc(CN(C)CCN(C)C)c2)nc2c1CNN2C(C)C [Compound A-74] | 10000 to 50000
5 | Cc1cc(C)c(CNC(=O)c2cc(C3=CCN(C(=O)[C@H](C)N)CC3)nc3c2cnn3C(C)C)c(=O)[nH]1 [Compound B-46] | 300 to 1000
6 | Cc1cc(C)c(CNC(=O)c2cc(N3CCC(C4CCNCC4)CC3)nc3c2cnn3C(C)C)c(=O)[nH]1 [Compound B-48] | 300 to 1000
7 | Cc1cc(C)c(CNC(=O)c2cc(C3CCN(CCN(C)C)CC3)cc3c2cnn3C2CCCC2)c(=O)[nH]1 [Compound D-46] | < 300
8 | Cc1cc(C)c(CNC(=O)c2cc(-c3ccc(N4CCNCC4)cc3)nc3c2cnn3C(C)C)c(=O)[nH]1 [Compound A-7, N-((4,6-dimethyl-2-oxo-1,2-dihydropyridin-3-yl)methyl)-1-isopropyl-6-(4-(piperazin-1-yl)phenyl)-1H-pyrazolo[3,4-b]pyridine-4-carboxamide] | < 300
9 | Cc1cc(C)c(CNC(=O)c2cc(C3=CCN(C(=O)C4CCNCC4)CC3)nc3c2cnn3C(C)C)c(=O)[nH]1 [Compound B-20, N-((4,6-dimethyl-2-oxo-1,2-dihydropyridin-3-yl)methyl)-1-isopropyl-6-(1-(piperidine-4-carbonyl)-1,2,3,6-tetrahydropyridin-4-yl)-1H-pyrazolo[3,4-b]pyridine-4-carboxamide] | < 300
10 | Cc1cc(CNCC2CCOCC2)c(CNC(=O)c2cccc3c2cnn3C2CCCC2)c(=O)[nH]1 [Compound D-89] | 10000 to 50000
11 | Cc1cc(C)c(CNC(=O)c2cc(-c3cnc(N)nc3)nc3c2cnn3C(C)C)c(=O)[nH]1 [Compound A-4, 6-(2-aminopyrimidin-5-yl)-N-((4,6-dimethyl-2-oxo-1,2-dihydropyridin-3-yl)methyl)-1-isopropyl-1H-pyrazolo[3,4-b]pyridine-4-carboxamide] | 300 to 1000
12 | Cc1cc(C)c(CNC(=O)c2cc(CN3CCN(C)CC3)cc3c2cnn3C2CCCC2)c(=O)[nH]1 [Compound D-7] | < 300
13 | Cc1cc(C)c(CNC(=O)c2cc(-c3ccc(CN4CCOCC4)cn3)cc3c2cnn3C2CCCC2)c(=O)[nH]1 [Compound C-15, 1-cyclopentyl-N-((4,6-dimethyl-2-oxo-1,2-dihydropyridin-3-yl)methyl)-6-(5-(morpholinomethyl)pyridin-2-yl)-1H-indazole-4-carboxamide] | < 300
14 | Cc1cc(C)c(CNC(=O)c2cc(C3CCN(C4CCN(S(C)(=O)=O)CC4)CC3)nc3c2cnn3C(C)C)c(=O)[nH]1 [Compound B-35, N-((4,6-dimethyl-2-oxo-1,2-dihydropyridin-3-yl)methyl)-1-isopropyl-6-(1′-(methylsulfonyl)-[1,4′-bipiperidin]-4-yl)-1H-pyrazolo[3,4-b]pyridine-4-carboxamide] | < 300
15 | Cc1cc(C)c(CNC(=O)c2cc(-c3ccc(CN4CCOCC4)cc3Cl)cc3c2cnn3C2CCCC2)c(=O)[nH]1 [Compound C-32] | < 300
16 | Cc1cc(C)c(CNC(=O)c2cc(Cl)cc3c2cnn3C2CCN(C(=O)C(C)(C)C)CC2)c(=O)[nH]1 [Compound D-24] | < 300
17 | Cc1cc(C)c(CNC(=O)c2cc(Br)cc3c2cnn3C2CCN(C(=O)C3CCCCC3)CC2)c(=O)[nH]1 [Compound D-27] | 300 to 1000
18 | Cc1cc(C)c(CNC(=O)c2cc(C3CCN(C(=O)C4CN(C)C4)CC3)nc3c2cnn3C(C)C)c(=O)[nH]1 [Compound B-8, N-((4,6-dimethyl-2-oxo-1,2-dihydropyridin-3-yl)methyl)-1-isopropyl-6-(1-(1-methylazetidine-3-carbonyl)piperidin-4-yl)-1H-pyrazolo[3,4-b]pyridine-4-carboxamide] | < 300

Row | Compound | IC50 [nM]
19 | Cc1cc(C)c(CNC(=O)c2cc(C3CC(C)(C)NC(C)(C)C3)cc3c2cnn3C2CCCC2)c(=O)[nH]1 [Compound D-3, 1-cyclopentyl-N-((4,6-dimethyl-2-oxo-1,2-dihydropyridin-3-yl)methyl)-6-(2,2,6,6-tetramethylpiperidin-4-yl)-1H-indazole-4-carboxamide] | < 300
20 | Cc1cc(C)c(CNC(=O)c2cc(C3=CC(C)(C)NC(C)(C)C3)nc3c2cnn3C2CCCC2)c(=O)[nH]1 [Compound B-5, 1-cyclopentyl-N-((4,6-dimethyl-2-oxo-1,2-dihydropyridin-3-yl)methyl)-6-(2,2,6,6-tetramethyl-1,2,3,6-tetrahydropyridin-4-yl)-1H-pyrazolo[3,4-b]pyridine-4-carboxamide] | < 300
21 | Cc1cc(C)c(CNC(=O)c2cc(-c3ccc(N)nc3)nc3c2cnn3C(C)C)c(=O)[nH]1 [Compound A-50] | 1000 to 3000
22 | Cc1cc(C)c(CNC(=O)c2cc(C=O)nc3c2cnn3C(C)C)c(=O)[nH]1 [Compound B-22, N-((4,6-dimethyl-2-oxo-1,2-dihydropyridin-3-yl)methyl)-6-formyl-1-isopropyl-1H-pyrazolo[3,4-b]pyridine-4-carboxamide] | < 300
23 | Cc1cc(C)c(CNC(=O)c2cc(N3CCC(N4CCN(C)CC4)CC3)nc3c2cnn3C(C)C)c(=O)[nH]1 [Compound B-106] | 1000 to 3000
24 | Cc1cc(C)c(CNC(=O)c2cc(-c3ccc(CN4CCNC(=O)C4)cc3)cc3c2cnn3C2CCCC2)c(=O)[nH]1 [Compound C-25] | < 300
25 | Cc1cc(C)c(CNC(=O)c2cc(OC(C)C)nc3c2cnn3C(C)C)c(=O)[nH]1 [Compound B-104] | 1000 to 3000
26 | Cc1cc(C)c(CNC(=O)c2cc(-c3cccnc3N3CCN(C(=O)OC(C)(C)C)CC3)nc3c2cnn3C(C)C)c(=O)[nH]1 [Compound A-95] | 3000 to 10000
27 | CCOC(=O)Cn1ncc2c(C(=O)NCc3c(C)cc(C)[nH]c3=O)cc(C3=CC(C)(C)NC(C)(C)C3)nc21 [Compound B-156] | 10000 to 50000
28 | Cc1cc(C)c(CNC(=O)c2cc(Br)nc3c2cnn3C(C)C)c(=O)[nH]1 [Compound B-88] | 1000 to 3000
29 | Cc1cc(C)c(CNC(=O)c2cc(C3=CC(C)(C)NC(C)(C)C3)nc3c2cnn3CCN(C)C)c(=O)[nH]1 [Compound B-152] | 10000 to 50000
30 | Cc1cc(C)c(CNC(=O)c2cc(-c3cccc(COCCN(C)C)c3)cc3c2cnn3C2CCCC2)c(=O)[nH]1 [Compound C-22] | < 300
31 | Cc1cc(C)c(CNC(=O)c2cc(-c3cccc(CNCCN)c3)nc3c2cnn3C(C)C)c(=O)[nH]1 [Compound A-26] | 300 to 1000
32 | Cc1cc(C)c(CNC(=O)c2cc(-c3ccc(CN4CCC[C@@H]4C(N)=O)cc3)cc3c2cnn3C2CCCC2)c(=O)[nH]1 [Compound C-13, (R)-6-(4-((2-carbamoylpyrrolidin-1-yl)methyl)phenyl)-1-cyclopentyl-N-((4,6-dimethyl-2-oxo-1,2-dihydropyridin-3-yl)methyl)-1H-indazole-4-carboxamide] | < 300
33 | Cc1cc(C)c(CNC(=O)c2cc(C3CC(C)(C)NC(C)(C)C3)nc3c2cnn3C2COC2)c(=O)[nH]1 [Compound B-47] | 300 to 1000
34 | Cc1cc(C)c(CNC(=O)c2ccnc3c2ccn3C(C)C)c(=O)[nH]1 [Compound F-1] | 3000 to 10000
35 | CCOc1ccc(S(=O)(=O)N2CCN(C)CC2)cc1-c1cc(C(=O)NCc2c(C)cc(C)[nH]c2=O)c2cnn(C3CCCC3)c2c1 [Compound C-27] | < 300
36 | Cc1cc(C)c(CNC(=O)c2cc(-c3cccc(CNCCO)c3)cc3c2cnn3C2CCCC2)c(=O)[nH]1 [Compound C-9, 1-cyclopentyl-N-((4,6-dimethyl-2-oxo-1,2-dihydropyridin-3-yl)methyl)-6-(3-(((2-hydroxyethyl)amino)methyl)phenyl)-1H-indazole-4-carboxamide] | < 300
